Laboratory results published in patent US4206207A, “Use of 4-carboxy-phthalato(1,2-diaminocyclohexane)-platinum (II) and alkali metal salts thereof with cyclophosphamide in alleviating L1210 murine leukemia” (priority 1978, dated 1980).
Several values for one entry are separate records, joined by “and”; a condition that tells them apart may be missing. Identical values can stand only once.

Tests used:
CD8F1 mammary = assay: Mouse tumor panel: CD8F1 mammary (sc, tumor weight inhibition); format: in vivo; details: Q7DX5
Method: (§1) NSC-271674 Against a Panel of a Mouse Tumors
(§2) **Tumor weight inhibition assay.
(§3) Data are expressed as a percentage of the survival time in days or the
(§4) tumor weights in mg of the treated mice divided by the corresponding
(§5) values for the control mice. All testing was performed using both platinu
(§6) compounds in the same experiment. The criteria for activity are as
(§7) follows: confirmed activity (activity from two separate laboratories) of
(§8) % T/C of 150 or more for survival systems and 10% or less for tumor weigh
(§9) inhibition assays. Lower levels of activity such as a % T/C of 125 for
(§10) survival systems and 42% for tumor weight inhibition assays are considere
(§11) statistically significant.

L1210 leukemia [1] = assay: L1210 leukemia in BDF1 mice, ip treatment on Day 1 only; format: in vivo; details: for % increase in life span (% ILS): in 1% NaHCO3
Method: The compound in 1% NaHCO3 solution was tested against the L1210 leukemia in BDF1 mice [10^6 cells given to mice on Day 0, treatment (ip) on Day 1 only] in laboratory and the following % increases in life span (%ILS) were noted: […]

L1210 [2] = assay: Mouse tumor panel: L1210 (ip, survival time); format: in vivo; details: D1-9
Method: as §1
(§12) *Survival time (mean or median) assay
as §3, §4, §5, §6, §7, §8, §9, §10, §11

murine leukemia L1210 = assay: Antileukemic activity in mice against murine leukemia L1210 (general statement); format: in vivo
Text: Some previous platinum chelate compounds show dosage limitation due to renal impairment but the free carboxyl of the present composition offers a possible route of oral […] and absorption by the stomach.

P388 leukemia = assay: In vivo activity against P388 leukemia; details: Days 1,5,9,13, NSC-119875 6.7 mg/kg, NSC-271674 20.0 mg/kg
Text: (§13) Data are expressed as survival in days and as a percentage increase in […]

P388/DDP = assay: In vivo activity against P388/DDP leukemia with acquired resistance to NSC-119875; details: Days 1,5,9,13, NSC-119875 6.7 mg/kg, NSC-271674 20.0 mg/kg
Text: P388/DDP refers to a tumor line with acquired resistance to NSC119875.
as §13

Lewis lung = assay: Mouse tumor panel: Lewis lung (iv, survival time); format: in vivo; details: D1-9
Method: as §1, §12, §3, §4, §5, §6, §7, §8, §9, §10, §11

Colon #38 = assay: Mouse tumor panel: Colon #38 (sc, tumor weight inhibition); format: in vivo; details: D2,9
Method: as §1, §2, §3, §4, §5, §6, §7, §8, §9, §10, §11

Lethality (LD50) in mice = details: mouse, in vivo
L1210 [3] = assay: In vitro growth inhibition of L1210 cells; format: cell-based, murine
Text: (§14) The ID50 refers to the concentration of test compound required to
(§15) inhibit the growth of either the L1210 or L1210/DDP (NSC119875) resistant

L1210/DDP = assay: In vitro growth inhibition of L1210/DDP (NSC-119875 resistant) cells; format: cell-based, murine
Text: as §14, §15

L1210 leukemia [4] = assay: L1210 leukemia in mice, treatment delayed until Day 3, singly and in combination; format: in vivo, BDF1 mice; details: Day 3 treatment
Method: The compound in 1% NaHCO3 solution was tested against the L1210 leukemia in BDF1 mice [10^6 cells given to mice on Day 0, treatment (ip) on Day 1 only] in laboratory and the following % increases in life span (%ILS) were noted:
When treatment was delayed until Day 3, 5 mg/kg gave 51% ILS, 42% ILS and 39% ILS in three experiments.

L1210 leukemia [5] = assay: NCI screen against L1210 leukemia, day 1, 5, 9 schedule; format: in vivo, murine
Text: The compound was submitted to the Drug Development Branch of the National Cancer Institute and assigned NSC Number 271674. It was screened against the L1210 leukemia on a day 1, 5, 9 schedule and the following results were obtained: […]

[6] = tested on: strains of murine leukemia; assay: Activity against strains of murine leukemia resistant to NSC 119875 (general statement); details: mouse, in vivo
L1210 leukemia [7] = assay: Second screener against L1210 leukemia, day 1, 5, 9 schedule; format: in vivo, murine
Text: The compound was submitted to the Drug Development Branch of the National Cancer Institute and assigned NSC Number 271674. It was screened against the L1210 leukemia on a day 1, 5, 9 schedule and the following results were obtained:

B16 melanoma = assay: Mouse tumor panel: B16 melanoma (ip, survival time); format: in vivo; details: D1-9
Method: as §1, §12, §3, §4, §5, §6, §7, §8, §9, §10, §11

[8] = Renal Toxicity Screening Protocol, toxicity compared to NSC-119875; format: in vivo
[9] = 5 mg/kg + cyclophosphamide 50 mg/kg + 5-fluorouracil 75 mg/kg
[10] = 5 mg/kg + cyclophosphamide 50 mg/kg, two experiments

In the case of `N[C@@H]1CCCC[C@H]1N.O=C([O-])c1ccc(C(=O)[O-])c(C(=O)[O-])c1.[H+].[Pt+2]` [NSC-271674, 4-Carboxyphthalato(1,2-diaminocyclohexane)platinum(II)], the “% T/C (tumor weight) at optimal dose” value (CD8F1 mammary; CD8F1 first line, optimal dose NSC-119875 8, NSC-271674 6.25 mg/kg/inj) is reported as 11%, the “% T/C (tumor weight) at optimal dose” value (CD8F1 mammary; CD8F1 second line, optimal dose NSC-119875 8, NSC-271674 25 mg/kg/inj) is reported as 25% and the “% increase in life span (% ILS)” value (L1210 leukemia [1]; 5 mg/kg ip) is reported as 70%. For the same compound, the “% increase in life span (% ILS)” value (L1210 leukemia [1]; 10 mg/kg ip) was 118%, the “% increase in life span (% ILS)” value (L1210 leukemia [1]; 20 mg/kg ip) was 119% and the “% increase in life span (% ILS)” value (L1210 leukemia [1]; 25 mg/kg ip) was 139%. For the same compound, the “% increase in life span (% ILS)” value (L1210 leukemia [1]; 40 mg/kg ip) was 232%, the “mice survived > 60 days” value (L1210 leukemia [1]; 50 mg/kg ip) was 1 of 8 and the “% increase in life span (% ILS)” value (L1210 leukemia [1]; 50 mg/kg ip) was 288%. For the same compound, the “mice survived > 60 days” value (L1210 leukemia [1]; 60 mg/kg ip) was 1 of 8, the “% increase in life span (% ILS)” value (L1210 leukemia [1]; 60 mg/kg ip) was 174% and the “% T/C (survival time) at optimal dose” value (L1210 [2]; L1210 first line, optimal dose NSC-119875 2, NSC-271674 0.78 mg/kg/inj) was 174%. The “% T/C (survival time) at optimal dose” value (L1210 [2]; L1210 second line, optimal dose NSC-119875 2, NSC-271674 1.56 mg/kg/inj) was 325%, the “effect of combination with cyclophosphamide (in words)” value (murine leukemia L1210; cyclophosphamide 50 mg/kg, optionally 5-FU 75 mg/kg or HU 1000 mg/kg) was “potentiated” and the “antileukemic activity (in words)” value (murine leukemia L1210; mice) was “antileukemic activity”. For the same compound, the effective dosage (murine leukemia L1210; mice) was 5-60 mg/kg of body weight, the “% ILS” value (P388 leukemia) was 56% and the “Survival” value (P388 leukemia) was 20.7 days. For the same compound, the “% ILS” value (P388/DDP) was 201%, the “Survival” value (P388/DDP) was 33.3 days and the “% T/C (survival time) at optimal dose” value (Lewis lung; Lewis lung first line, optimal dose NSC-119875 2, NSC-271674 3.12 mg/kg/inj) was 122%. For the same compound, the “% T/C (survival time) at optimal dose” value (Lewis lung; Lewis lung second line, optimal dose NSC-119875 2, NSC-271674 6.25 mg/kg/inj) was 127%, the “% T/C (tumor weight) at optimal dose” value (Colon #38; Colon #38 first line, optimal dose NSC-119875 8, NSC-271674 12.5 mg/kg/inj) was 50% and the “% T/C (tumor weight) at optimal dose” value (Colon #38; Colon #38 second line, optimal dose NSC-119875 16, NSC-271674 50 mg/kg/inj) was 33%. For the same compound, the “approximate LD50” value (Lethality (LD50) in mice) was ~75 mg/kg, the “ID50 (concentration required to inhibit the growth of cells by 50 percent)” value (L1210 [3]) was 0.30 µg/mL and the “ID50 (concentration required to inhibit the growth of cells by 50 percent)” value (L1210/DDP) was 0.23 µg/mL. The “% ILS” value (L1210 leukemia [4]; [9]) was 673%, the “>60 day survivors” value (L1210 leukemia [4]; [9]) was 8 of 10 and the “% ILS” value (L1210 leukemia [4]; [10]) was 416% and 217%. The “>60 day survivors” value (L1210 leukemia [4]; [10]) was 3 of 10 and no, the “% ILS” value (L1210 leukemia [4]; 5 mg/kg alone, three experiments) was 51% and 42% and 39% and the “% ILS” value (L1210 leukemia [5]; 0.78 mg/kg) was 27%. For the same compound, the “Cures (of 10)” value (L1210 leukemia [5]; 0.78 mg/kg) was 0 of 10, the “% ILS” value (L1210 leukemia [5]; 1.56 mg/kg) was 33% and the “Cures (of 10)” value (L1210 leukemia [5]; 1.56 mg/kg) was 0 of 10. For the same compound, the “% ILS” value (L1210 leukemia [5]; 3.13 mg/kg) was 46%, the “Cures (of 10)” value (L1210 leukemia [5]; 3.13 mg/kg) was 0 of 10 and the “% ILS” value (L1210 leukemia [5]; 6.25 mg/kg) was 163%. The “Cures (of 10)” value (L1210 leukemia [5]; 6.25 mg/kg) was 1 of 10, the “% ILS” value (L1210 leukemia [5]; 12.5 mg/kg) was 191% and the “Cures (of 10)” value (L1210 leukemia [5]; 12.5 mg/kg) was 2 of 10. For the same compound, the “% ILS” value (L1210 leukemia [5]; 25 mg/kg) was 344%, the “Cures (of 10)” value (L1210 leukemia [5]; 25 mg/kg) was 5 of 10 and the “activity against NSC 119875-exhausted strains (in words)” value [6] was “appears to be active”. For the same compound, the “% ILS” value (L1210 leukemia [7]; 0.78 mg/kg) was 19%, the “% ILS” value (L1210 leukemia [7]; 1.56 mg/kg) was 19% and the “% ILS” value (L1210 leukemia [7]; 3.13 mg/kg) was 41%. For the same compound, the “% ILS” value (L1210 leukemia [7]; 6.25 mg/kg) was 58%, the questionably toxic deaths (L1210 leukemia [7]; 6.25 mg/kg) was 2 deaths and the “% ILS” value (L1210 leukemia [7]; 12.5 mg/kg) was 147%. For the same compound, the “% ILS” value (L1210 leukemia [7]; 25 mg/kg) was 86%, the cures (L1210 leukemia [7]; all doses) was “No cures” and the “% T/C (survival time) at optimal dose” value (B16 melanoma; B16 first line, optimal dose NSC-119875 2, NSC-271674 6.25 mg/kg/inj) was 171%. For the same compound, the “% T/C (survival time) at optimal dose” value (B16 melanoma; B16 second line, optimal dose NSC-119875 1, NSC-271674 1.56 mg/kg/inj) was 159%, the “renal toxicity (in words)” value ([8]; against NSC 119875) was “superior results in testing for renal toxicity” and the “Body Weight Loss score” value ([8]; relative to NSC-119875) was 3. The “Clinical Chemistry - Blood Urea Nitrogen score” value ([8]; relative to NSC-119875) was 1, the “Clinical Chemistry - Creatinine score” value ([8]; relative to NSC-119875) was 1 and the “Clinical Chemistry - Serum Glutamic Pyruvic Transaminase score” value ([8]; relative to NSC-119875) was 3. For the same compound, the “Hematology - Hematocrit score” value ([8]; relative to NSC-119875) was 3, the “Hematology - White Blood Cell score” value ([8]; relative to NSC-119875) was 3 and the “Histopathology - Gastrointestinal score” value ([8]; relative to NSC-119875) was 1. The “Histopathology - Hematopoietic score” value ([8]; relative to NSC-119875) was 5, the “Histopathology - Lymphatic score” value ([8]; relative to NSC-119875) was 1 and the “Histopathology - Renal score” value ([8]; relative to NSC-119875) was 2. The “TOTAL SCORE” value ([8]; sum of the ten scores) was 23.
